The source of these data is publication PMC10837223, “Acute antiarrhythmic effects of SGLT2 inhibitors–dapagliflozin lowers the excitability of atrial cardiomyocytes” (Basic Research in Cardiology, 2024).

Structures are written as SMILES.

For the assay, the target named is T1, NaV1.5 (Homo sapiens, UniProt Q14524, Y1767A).
T1 construct: gene SCN5A
Briefly: cell-based. The note with it: CHO, read-out: % reduction at 100 μmol/L.

T1 sequence (Q14524 whole entry Y1767A): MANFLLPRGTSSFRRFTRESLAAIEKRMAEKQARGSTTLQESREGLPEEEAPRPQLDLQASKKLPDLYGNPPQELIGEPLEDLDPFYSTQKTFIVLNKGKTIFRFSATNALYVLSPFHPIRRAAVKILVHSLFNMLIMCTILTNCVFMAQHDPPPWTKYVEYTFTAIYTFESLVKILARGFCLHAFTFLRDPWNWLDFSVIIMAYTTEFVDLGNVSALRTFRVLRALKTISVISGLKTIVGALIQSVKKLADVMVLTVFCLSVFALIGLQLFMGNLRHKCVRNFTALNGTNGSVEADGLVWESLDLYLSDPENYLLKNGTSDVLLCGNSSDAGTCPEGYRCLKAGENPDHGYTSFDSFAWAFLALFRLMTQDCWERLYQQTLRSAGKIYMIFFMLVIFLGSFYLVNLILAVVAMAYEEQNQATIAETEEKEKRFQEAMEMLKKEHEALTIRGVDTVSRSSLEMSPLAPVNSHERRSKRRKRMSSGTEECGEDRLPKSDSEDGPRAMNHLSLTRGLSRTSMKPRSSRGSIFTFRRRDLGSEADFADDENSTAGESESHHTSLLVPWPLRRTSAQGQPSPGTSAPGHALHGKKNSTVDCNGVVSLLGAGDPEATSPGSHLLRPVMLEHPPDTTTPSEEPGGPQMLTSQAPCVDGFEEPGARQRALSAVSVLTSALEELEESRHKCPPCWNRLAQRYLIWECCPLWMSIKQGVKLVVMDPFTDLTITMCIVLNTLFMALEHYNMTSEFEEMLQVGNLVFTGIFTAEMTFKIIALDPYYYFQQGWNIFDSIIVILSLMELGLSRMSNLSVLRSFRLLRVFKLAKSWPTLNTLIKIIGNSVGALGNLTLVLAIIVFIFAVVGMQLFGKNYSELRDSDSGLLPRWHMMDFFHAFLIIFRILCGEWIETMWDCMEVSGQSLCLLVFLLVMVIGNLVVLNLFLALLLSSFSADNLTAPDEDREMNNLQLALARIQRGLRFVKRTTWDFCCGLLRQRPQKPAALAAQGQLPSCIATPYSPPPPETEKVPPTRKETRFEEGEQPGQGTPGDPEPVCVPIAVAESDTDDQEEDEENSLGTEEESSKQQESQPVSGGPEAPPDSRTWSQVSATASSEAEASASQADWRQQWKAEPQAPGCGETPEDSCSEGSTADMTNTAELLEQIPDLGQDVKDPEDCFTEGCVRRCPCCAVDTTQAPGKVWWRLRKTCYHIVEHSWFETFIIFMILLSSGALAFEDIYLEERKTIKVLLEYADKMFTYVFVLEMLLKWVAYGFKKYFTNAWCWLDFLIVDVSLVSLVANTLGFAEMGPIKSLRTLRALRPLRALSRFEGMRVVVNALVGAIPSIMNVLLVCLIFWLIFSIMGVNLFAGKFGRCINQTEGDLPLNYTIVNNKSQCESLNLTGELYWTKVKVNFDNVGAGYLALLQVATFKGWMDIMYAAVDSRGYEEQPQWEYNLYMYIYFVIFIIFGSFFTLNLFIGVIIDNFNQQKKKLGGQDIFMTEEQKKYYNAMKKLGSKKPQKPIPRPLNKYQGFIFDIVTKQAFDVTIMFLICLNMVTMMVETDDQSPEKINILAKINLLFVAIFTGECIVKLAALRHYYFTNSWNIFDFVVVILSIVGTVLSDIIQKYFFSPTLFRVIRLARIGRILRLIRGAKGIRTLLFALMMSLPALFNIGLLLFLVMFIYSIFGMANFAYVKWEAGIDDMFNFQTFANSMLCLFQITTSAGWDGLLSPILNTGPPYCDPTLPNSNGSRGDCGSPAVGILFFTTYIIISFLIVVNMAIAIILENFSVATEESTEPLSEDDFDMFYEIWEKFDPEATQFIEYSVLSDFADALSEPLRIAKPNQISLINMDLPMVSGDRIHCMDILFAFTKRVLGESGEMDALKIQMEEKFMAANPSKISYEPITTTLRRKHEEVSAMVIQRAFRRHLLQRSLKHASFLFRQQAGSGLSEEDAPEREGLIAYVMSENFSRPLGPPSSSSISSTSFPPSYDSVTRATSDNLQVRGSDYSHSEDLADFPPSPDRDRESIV

For `CCOc1ccc(Cc2cc([C@@H]3O[C@H](CO)[C@@H](O)[C@H](O)[C@H]3O)ccc2Cl)cc1` [dapagliflozin], the inhibition at 100 µM is 68.3 ± 4.2%.
